In US10047034B2, “Polyhydroxylated pentacyclic triterpene acids as HMG-COA reductase inhibitors” (Prairie Berry Europe GmbH, priority 2012, dated 2018):
Marks after values point to notes of the source that are not given here.

Columns and labels:
[1] = target: T1, Human recombinant HMG-CoA reductase (Homo sapiens, UniProt P04035); assay: HMG-CoA reductase inhibition test ([14C]mevalonate formation); type: biochemical; conditions: for inhibition at 30 µM / inhibition at 3 µM: duplicates; for HMG-CoA reductase inhibiting activity (in words): own investigations
T1 sequence (P04035 426-888 limits assumed): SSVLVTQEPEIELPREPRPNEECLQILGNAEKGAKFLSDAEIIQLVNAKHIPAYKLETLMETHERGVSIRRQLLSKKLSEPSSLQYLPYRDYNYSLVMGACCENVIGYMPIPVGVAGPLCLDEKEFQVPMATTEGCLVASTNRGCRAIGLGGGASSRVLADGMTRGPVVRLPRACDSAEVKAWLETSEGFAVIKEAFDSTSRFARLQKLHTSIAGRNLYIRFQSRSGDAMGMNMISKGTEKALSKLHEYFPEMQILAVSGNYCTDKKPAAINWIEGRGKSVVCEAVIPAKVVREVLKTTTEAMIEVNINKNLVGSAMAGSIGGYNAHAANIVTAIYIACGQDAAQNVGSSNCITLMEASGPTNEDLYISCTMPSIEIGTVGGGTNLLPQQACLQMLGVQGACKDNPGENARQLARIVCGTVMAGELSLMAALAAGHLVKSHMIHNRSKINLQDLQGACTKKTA
Protocol: Inhibition of HMG-CoA reductase was determined under following conditions. Human recombinant HMG-CoA reductase were pre-incubated with 35 ng/ml enzyme in reaction buffer, pH 7.5 (100 mM KH2PO4, 8 mM Glucose-6-Phosphate, 1 mM nicotinamide adenine dinucleotide phosphate, 4 mM ethylenediaminetetraacetic acid, 2 mM dithiothreitol, 0.6 Units glucose-6-phosphate dehydrogenase) for 15 minutes at 37° C. The reaction was initiated by addition of 2.5 μM [14C]HMG-CoA for another 20 minute incubation period and terminated by further addition of 1 N HCl. An aliquot was removed and then counted to determine the amount of [14C]Mevalonate formed. […] All samples were measured in duplicates.

[2] = tested on: hamsters fed with a high-cholesterol diet; assay: In vivo food cholesterol reduction (hypocholesterolemic activity); set-up: species or system golden Syrian hamsters; conditions: oral once a day, extract 100 mg/kg, ezetimibe 1 mg/kg
Protocol: The dry extract of example 1 was evaluated for possible hypocholesterolemic activity in hamsters fed with a high-cholesterol diet. Groups of 10 male golden Syrian hamsters were induced to hypercholesterolemia by a high cholesterol diet (g/100 g: 5.0 corn oil, 5.0 coconut oil, 0.2 cholesterol and 89.8 standard diet throughout the 28-day experimental period. After the test animals had been kept on the high cholesterol diet for 7 days, vehicle (1% Cremophor EL in phosphate buffered saline) and extract of example 1 (incorporated into said vehicle) were administered orally, starting on day 1, for 28 days at 100 mg/kg, once a day, were administered orally for 28 consecutive days. Ezetimibe, the positive control, was also administered orally (at 1 mg/kg) for 28 consecutive days. Blood was drawn in overnight fasted animals on day 1 (pre-treatment), day 8, day 15, and day 29 for measurements of serum total cholesterol (Total plasma cholesterol), high density lipoprotein (HDL), low density lipoprotein (LDL) and triglyceride (TG) levels. The measurement values on day 8, day 15, […] and day 29 were transformed into percentage. One-way ANOVA and Dunnett's test were used to ascertain difference between vehicle control and treated groups.

With C[C@@H]1CC[C@]2(C(=O)O)CC[C@]3(C)C(=CC[C@@H]4[C@@]5(C)CC[C@@H](O)[C@](C)(CO)[C@@H]5CC[C@]43C)[C@@H]2[C@]1(C)O [Barbinervic acid] the inhibition at 30 µM [1] was 37%.

For C[C@@H]1CC[C@]2(C(=O)O)CC[C@]3(C)C(=CC[C@@H]4[C@@]5(C)C[C@@H](O)[C@@H](O)C(C)(C)[C@@H]5CC[C@]43C)[C@@H]2[C@]1(C)O [Euscaphic acid], the inhibition at 3 µM [1] was 91% and the “HMG-CoA reductase inhibiting activity (in words)” value [1] was “strongest HMG-CoA reductase inhibiting activity”.

For O=C1[C@H](CC[C@H](O)c2ccc(F)cc2)[C@@H](c2ccc(O)cc2)N1c1ccc(F)cc1 [Ezetimibe], the “LDL levels relative to day one” value ([2]; t = day 1 (pre-treatment)) was 100%, the “Total plasma cholesterol levels relative to day one (pre-treatment)” value ([2]; t = day 1 (pre-treatment)) was 100% and the “LDL levels relative to day one” value ([2]; t = day 15) was 22%*. For the same compound, the “Total plasma cholesterol levels relative to day one (pre-treatment)” value ([2]; t = day 15) was 61%*, the “LDL levels relative to day one” value ([2]; t = day 29) was 15%* and the “Total plasma cholesterol levels relative to day one (pre-treatment)” value ([2]; t = day 29) was 41%*.

For CC[C@H](C)C(=O)O[C@H]1C[C@@H](C)C=C2C=C[C@H](C)[C@H](CC[C@@H]3C[C@@H](O)CC(=O)O3)[C@H]21 [Lovastatin], the inhibition at 3 µM [1] was 100% and the inhibition at 30 µM [1] was 100%.

In the case of C[C@@H]1CC[C@]2(C(=O)O)CC[C@]3(C)C(=CC[C@@H]4[C@@]5(C)CC[C@H](O)C(C)(C)[C@@H]5CC[C@]43C)[C@@H]2[C@]1(C)O [Pomolic acid], the inhibition at 30 µM [1] is reported as 25%.

In the case of O=c1c(O[C@@H]2O[C@H](CO)[C@H](O)[C@H](O)[C@H]2O)c(-c2ccc(O)c(O)c2)oc2cc(O)cc(O)c12 [Quercetin-3-O-beta-D-galactopyranoside], the inhibition at 3 µM [1] is reported as 75% and the “HMG-CoA reductase inhibiting activity (in words)” value [1] is reported as “very good HMG-CoA reductase inhibiting activity”.

C[C@H]1[C@H](C)CC[C@]2(C(=O)O)CC[C@]3(C)C(=CC[C@@H]4[C@@]5(C)CC[C@H](O)C(C)(C)[C@@H]5CC[C@]43C)[C@H]12 [Ursolic acid] showed an inhibition at 3 µM [1] of 0% and an inhibition at 30 µM [1] of 0%.
